Data taken from patent EP4813992A1, “POLYARYL DERIVATIVE AND USE THEREOF” (Hangzhou HealZen Therapeutics Co., Ltd., priority 2023, dated 2025).

Target: HPK1 kinase (Homo sapiens, UniProt Q92918)
Assay: Lantha screen assay, inhibitory effect on HPK1 kinase
Assay type: biochemical
Conditions: initial compound concentration 1 µM
Procedure: The Lantha screen assay is used to evaluate the inhibitory effect of the compounds on HPK1 kinase. • a) Kinase buffer: 50 mM HEPES (pH 7.5), 10 mM MgCl2, 4 mM DTT, 0.01% Tween-20, 0.01% BSA. • b) Compound Preparation: The compound is diluted with DMSO, and the initial detection concentration of the compound is 1 µM and is diluted to the corresponding concentration. • c) Kinase response and termination: A kinase solution is prepared by adding kinase buffer, the kinase solution and the compound are added to the test plate to be incubated at room temperature for 10 minutes. Fluorescein-PKC and ATP are added to the kinase buffer to form a substrate solution, and 5 µl of the substrate solution is added to the test plate to start the reaction to be incubated at room temperature for 90 minutes; then, 10 µl of a mixture of antibody and EDTA is added to terminate the reaction to be incubated at room temperature for 60 minutes. • d) The date is read by Envision instrument to plot a curve with the Log concentration of the inhibitor as the X-axis and the inhibition rate as the Y-axis, and then the formula Y=Bottom + (Top-Bottom)/(1+(IC50/X)^HillSlope) is used to obtain IC50. Table 1 Inhibitory activity the compounds of the invention on HPK1 kinase

HPK1 kinase, sequence (Q92918 whole entry): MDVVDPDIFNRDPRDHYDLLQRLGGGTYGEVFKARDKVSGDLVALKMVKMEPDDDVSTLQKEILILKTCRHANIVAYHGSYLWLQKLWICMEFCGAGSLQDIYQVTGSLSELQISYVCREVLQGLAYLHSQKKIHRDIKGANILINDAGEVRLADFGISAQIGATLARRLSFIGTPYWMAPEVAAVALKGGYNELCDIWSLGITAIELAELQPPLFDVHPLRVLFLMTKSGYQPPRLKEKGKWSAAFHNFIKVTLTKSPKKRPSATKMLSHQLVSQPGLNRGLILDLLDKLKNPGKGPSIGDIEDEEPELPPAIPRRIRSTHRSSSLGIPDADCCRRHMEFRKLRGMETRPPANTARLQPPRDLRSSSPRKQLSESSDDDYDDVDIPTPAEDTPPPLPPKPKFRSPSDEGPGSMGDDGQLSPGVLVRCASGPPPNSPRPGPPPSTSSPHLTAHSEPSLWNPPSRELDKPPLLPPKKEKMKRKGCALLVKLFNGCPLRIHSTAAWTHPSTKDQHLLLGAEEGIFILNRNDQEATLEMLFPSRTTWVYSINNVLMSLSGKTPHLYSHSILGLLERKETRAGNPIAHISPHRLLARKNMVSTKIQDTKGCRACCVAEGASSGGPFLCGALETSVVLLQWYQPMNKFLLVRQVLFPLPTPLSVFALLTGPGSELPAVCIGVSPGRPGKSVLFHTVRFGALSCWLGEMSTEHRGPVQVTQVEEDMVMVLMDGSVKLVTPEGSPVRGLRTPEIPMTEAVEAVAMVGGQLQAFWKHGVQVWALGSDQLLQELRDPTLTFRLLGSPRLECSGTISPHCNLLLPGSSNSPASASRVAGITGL

IC50, < 10 nM:
Cc1cc(-c2cnc3[nH]cc(-c4ccc(C(=O)N(C)C)cc4)c3n2)cc(C)c1C1=CCN(C2CN(Cc3ccc(F)c(N4CCC(=O)NC4=O)c3)C2)CC1 [compound 038]
CCN1CCC(n2cc(-c3c[nH]c4ncc(-c5cc(C)c(C6=CCN(CC7CN(c8ccc(C9CCC(=O)NC9=O)cc8)C7)CC6)c(C)c5)nc34)cn2)CC1 (centres unmarked) [compound 056]
Cc1cc(-c2cnc3[nH]cc(-c4ccc(C(=O)N(C)C)cc4)c3n2)cc(C)c1C1=CCN(C(=O)C2CN(c3ccc(C4CCC(=O)NC4=O)cc3)C2)CC1 (centres unmarked) [compound 060]
Cc1cc(-c2cnc3[nH]cc(-c4ccc(C(=O)N(C)C)cc4)c3n2)cc(C)c1C1=CCN(CC2CN(C(=O)c3ccc(Cl)c(N4CCC(=O)NC4=O)c3)C2)CC1 [compound 124]
Cc1cc(-c2cnc(N)c(Oc3ccc(C(=O)N(C)C)cc3)n2)cc(C)c1C1=CCN(CC2CN(c3ccc(C(=O)NC4CCC(=O)NC4=O)cc3)C2)CC1 (centres unmarked) [compound 093]
Cc1cc(N2CC3CC(N4CC=C(c5c(C)cc(-c6cnc7[nH]cc(-c8ccc(C(=O)N(C)C)cc8)c7c6)cc5C)CC4)CC3C2)ccc1N1CCC(=O)NC1=O (centres unmarked) [compound 115]
Cc1cc(-c2cnc3[nH]cc(-c4ccc(C(=O)N(C)C)cc4)c3n2)cc(C)c1C1=CCN(CC2CN(c3ccc(NC4CCC(=O)NC4=O)nc3)C2)CC1 (centres unmarked) [compound 087]
Cc1cc(-c2cnc3[nH]cc(-c4ccc(C(=O)N(C)C)cc4)c3n2)cc(C)c1C1=CCN(CC2CN(c3ccc(C(=O)NC4CCC(=O)NC4=O)c(F)c3)C2)CC1 (centres unmarked) [compound 100]
COc1ccc(C(=O)N2CC(CN3CC=C(c4ncc(-c5cnc6[nH]cc(-c7ccc(C(=O)N(C)C)cc7)c6n5)cc4CN(C)C)CC3)C2)cc1N1CCC(=O)NC1=O [compound 053]
Cc1cc(-c2cnc3[nH]cc(-c4ccc(C(=O)N(C)C)nc4)c3n2)cc(C)c1C1=CCN(CC2CN(c3ccc(C(=O)NC4CCC(=O)NC4=O)cc3)C2)CC1 (centres unmarked) [compound 030]
Cc1cc(-c2cnc3[nH]cc(-c4ccc(C(=O)N(C)C)cc4)c3n2)cc(C)c1C1=CCN(CC2CC2Nc2ccc(C(=O)NC3CCC(=O)NC3=O)cc2)CC1 (centres unmarked) [compound 036]
Cc1cc(-c2cnc3[nH]cc(-c4ccc(C(=O)N(C)C)cc4)c3n2)cc(C)c1C1=CCN(CC2CN(c3ccc(C4CCC(=O)NC4=O)cc3)C2)CC1 (centres unmarked) [compound 102]
Cc1cc(-c2cnc3[nH]cc(-c4ccc(C(=O)N(C)C)cc4)c3n2)cc(C)c1C1=CCN(CC2CN(c3ccc(NC4CCC(=O)NC4=O)c(F)c3)C2)CC1 (centres unmarked) [compound 019]
Cc1cc(N2CC(CCN3CC=C(c4c(C)cc(-c5cnc6[nH]cc(-c7ccc(C(=O)N(C)C)cc7)c6n5)cc4C)CC3)C2)ccc1N1CCC(=O)NC1=O [compound 127]
Cc1cc(-c2cnc3[nH]cc(-c4ccc(C(=O)N(C)C)cc4)c3n2)cc(C)c1C1=CCN(CC#Cc2cccc3c2n(C)c(=O)n3C2CCC(=O)NC2=O)CC1 (centres unmarked) [compound 046]
Cc1cc(-c2cnc3[nH]cc(-c4ccc(C(=O)N(C)C)cc4)c3n2)cc(C)c1C1=CCN(CC#Cc2ccc(C(=O)NC3CCC(=O)NC3=O)cc2)CC1 (centres unmarked) [compound 026]
Cc1cc(-c2cnc3[nH]cc(-c4ccc(C(=O)N(C)C)cc4)c3n2)cc(C)c1C1=CCN(C2CC3(CCN(c4ccc(C5CCC(=O)NC5=O)c(F)c4)C3)C2)CC1 (centres unmarked) [compound 045]
Cc1ccc(C(=O)N2CC(CN3CC=C(c4c(C)cc(-c5cnc6[nH]cc(-c7cnc8c(c7C)NCCO8)c6n5)cc4C)CC3)C2)cc1N1CCC(=O)NC1=O [compound 069]
Cc1cc(-c2cnc3[nH]cc(-c4ccc5c(c4)C(C)(C)OC5=O)c3n2)cc(C)c1C1=CCN(C2CN(c3ccc(C4CCC(=O)NC4=O)cc3)C2)CC1 (centres unmarked) [compound 066]
Cc1cc(NCC2(CN3CC=C(c4c(C)cc(-c5cnc6[nH]cc(-c7ccc(C(=O)N(C)C)cc7)c6n5)cc4C)CC3)CCC2)ccc1N1CCC(=O)NC1=O [compound 041]
COc1ccc(N2CCC(C)(CN3CC=C(c4c(C)cc(-c5cnc6[nH]cc(-c7ccc(C(=O)N(C)C)cc7)c6n5)cc4C)CC3)C2)cc1N1CCC(=O)NC1=O (centres unmarked) [compound 035]
Cc1cc(-c2cnc3[nH]cc(-c4ccc(C(=O)N(C)C)cc4)c3n2)cc(C)c1C1=CCN(CCCC(=O)c2ccc(C3CCC(=O)NC3=O)cc2)CC1 (centres unmarked) [compound 033]
Cc1cc(N2CCC3(CCC(N4CC=C(c5c(C)cc(-c6cnc7[nH]cc(-c8ccc(C(=O)N(C)C)cc8)c7n6)cc5C)CC4)C3)C2)ccc1N1CCC(=O)NC1=O (centres unmarked) [compound 017]
Cc1cc(-c2cnc3[nH]cc(-c4ccc(C(=O)N(C)C)cc4)c3n2)cc(C)c1C1=CCN(C2CN(c3ccc(C4CCC(=O)NC4=O)cc3)C2)CC1 (centres unmarked) [compound 048]
Cc1cc(-c2cnc(N)c(Oc3cnn(C4CCN(C)CC4)c3)n2)cc(C)c1C1=CCN(CC2CN(c3ccc(C4CCC(=O)NC4=O)cc3)C2)CC1 (centres unmarked) [compound 096]
CCOc1cc(-c2cnc3[nH]cc(-c4ccc(C(=O)N(C)C)cc4)c3c2)ccc1C1=CCN(CC2CN(c3ccc(N4CCC(=O)NC4=O)c(C)c3)C2)CC1 [compound 137]
Cc1cc(-c2cnc3[nH]cc(-c4ccc(C(=O)N(C)C)cc4)c3n2)cc(C)c1C1=CCN(CC2CN(c3cccc(N4CCC(=O)NC4=O)c3C)C2)CC1 [compound 027]
Cc1cc(-c2cnc3[nH]cc(-c4ccc(C(=O)N(C)C)cc4)c3c2)cc(C)c1C1=CCN(CC2CN(c3ccc(C(=O)NC4CCC(=O)NC4=O)cc3)C2)CC1 (centres unmarked) [compound 063]
Cc1cc(-c2cnc3[nH]cc(-c4ccc(C(=O)N(C)C)cc4)c3n2)cc(C)c1C1=CCN(C2CN(c3ccc(C(=O)NC4CCC(=O)NC4=O)cc3)C2)CC1 (centres unmarked) [compound 005]
Cc1cc(N2CC(CN3CC=C(c4c(C)cc(-c5cnc6[nH]cc(-c7ccc(N8CCOCC8)nc7)c6c5)cc4C)CC3)C2)ccc1N1CCC(=O)NC1=O [compound 103]
Cc1cc(-c2cnc3[nH]cc(-c4ccc(C(=O)N(C)C)cc4)c3n2)cc(C)c1C1=CCN(CC2CN(c3ncc(C(=O)NC4CCC(=O)NC4=O)o3)C2)CC1 (centres unmarked) [compound 068]
Cc1cc(-c2cnc3[nH]cc(-c4ccc(C(=O)N(C)C)cc4)c3n2)cc(C)c1C1=CCN(CC2CCN(C(=O)c3ccc(Cl)c(N4CCC(=O)NC4=O)c3)CC2)CC1 [compound 120]
Cc1cc(-c2cnc(N)c(OCc3ccc(C(=O)N(C)C)cc3)n2)cc(C)c1C1=CCN(CC2CN(c3ccc(C(=O)NC4CCC(=O)NC4=O)cc3)C2)CC1 (centres unmarked) [compound 094]
Cc1cc(-c2cnc3[nH]cc(-c4ccc(C(=O)N(C)C)cc4)c3n2)cc(C)c1C1=CCN(C2CN(C(=O)c3ccc(NC4CCC(=O)NC4=O)cc3)C2)CC1 (centres unmarked) [compound 020]
COc1ccc(C(=O)N2CC(CN3CC=C(c4c(C)cc(-c5cnc6[nH]cc(-c7ccc(C(=O)N(C)C)cc7)c6n5)cc4C)CC3)C2)cc1N1CCC(=O)NC1=O [compound 001]
Cc1cc(-c2cnc3[nH]cc(-c4ccc(C(=O)N(C)C)cn4)c3n2)cc(C)c1C1=CCN(CC2CN(c3ccc(C(=O)NC4CCC(=O)NC4=O)cc3)C2)CC1 (centres unmarked) [compound 031]
Cc1cc(-c2c[nH]c3ncc(-c4cc(C)c(C5=CCN(CC6CN(c7ccc(C(=O)NC8CCC(=O)NC8=O)cc7)C6)CC5)c(C)c4)nc23)ccc1C(=O)N1CC2(COC2)C1 (centres unmarked) [compound 050]
Cc1cc(N2CC(CN3CC=C(c4ccc(-c5cnc6[nH]cc(-c7ccc(C(=O)N(C)C)cc7)c6n5)cc4F)CC3)C2)ccc1N1CCC(=O)NC1=O [compound 133]
Cc1cc(-c2cnc3[nH]nc(-c4ccc(C(=O)N(C)C)cc4)c3c2)cc(C)c1C1=CCN(C2CCN(c3ccc(C(=O)NC4CCC(=O)NC4=O)cn3)CC2)CC1 (centres unmarked) [compound 080]
Cc1ccc(C(=O)N2CC(N3CC=C(c4c(C)cc(-c5cnc6[nH]cc(-c7ccc8c(c7)CCN(C)C8=O)c6n5)cc4C)CC3)C2)cc1N1CCC(=O)NC1=O [compound 072]
Cc1cc(-c2cnc3[nH]cc(-c4ccc(C(=O)N(C)C)cc4)c3n2)cc(C)c1C1=CCN(CC2CN(c3ccc(NC4CCC(=O)NC4=O)cc3)C2)CC1 (centres unmarked) [compound 043]
Cc1cc(N2CC(N3CC=C(c4c(C)cc(-c5cnc6[nH]cc(-c7ccc(C(=O)N(C)C)cc7)c6n5)cc4C)CC3)C2)ccc1N1CCC(=O)NC1=O [compound 125]
Cc1cc(-c2cnc3[nH]cc(-c4ccc(C(=O)N(C)C)cc4)c3n2)cc(C)c1C1=CCN(C2CC(C(=O)c3ccc(F)c(N4CCC(=O)NC4=O)c3)C2)CC1 (centres unmarked) [compound 037]
Cc1cc(-c2cnc3[nH]nc(-c4ccc(C(=O)N(C)C)cc4)c3c2)cc(C)c1C1=CCN(CC2CN(c3ncc(C(=O)NC4CCC(=O)NC4=O)o3)C2)CC1 (centres unmarked) [compound 077]
